Data reported in patent US9701707B2, “Methods of synthesizing substituted purine compounds” (Epizyme, Inc., priority 2013, dated 2017).

What was measured:
[1] = Dynamic vapor sorption (DVS) hygroscopicity; type: physicochemical; conditions: at 80% RH, 25° C.
Experimental: Form A may be observed EP-1. […] (peak temperature) which is accompanied by 5.9 wt % weight loss up to ˜150° C. in the TGA curve (FIG. 3). […] Form A is hygroscopic as indicated by water adsorption of 5.8 wt % at 80% RH measured by dynamic vapor sorption (DVS) (FIG. 4). A solid is considered moderately hygroscopic when water uptake at 25° C./80% RH is between 2-15 wt % based on criteria of European Pharmacopeia.
Form B of EP-1 trihydrate (x is 3) is a trihydrate as confirmed by single crystal analysis. The experimental XRPD pattern of Form B matches well with the simulated one from single crystal data (FIG. 6). This was also confirmed by DSC and TGA data (FIG. 7 and FIG. 8, respectively). DSC data indicates Form B dehydrates at ˜132° C. […] Form B is slightly hygroscopic as evidenced by a weight change of ˜0.3% between 0% and 95% RH (FIG. 9), (data collection was programmed from 95% RH-0% RH-95% RH at a step size of 10% RH at 25° C.).

[2] = Solubility in Simulated Gastric Fluid (SGF) at 37° C.; type: physicochemical
Experimental: To study if Form A and Form B would perform differently in stomach, the solubilities of Form A and Form B were measured in Simulated Gastric Fluid (SGF, see below for SGF preparation) at 37° C. In these experiments, about 100 mg Form A and 50 mg Form B were weighed into 20-ml glass vials, followed by addition of 4 ml SGF into each vial and the samples were stirred at 37° C. Aliquots were taken for solubility determination using HPLC after 15, 30, and 60 min, respectively. The remaining solids after each time point were subject to XRPD analysis.
Weigh appropriate amount of hydrochloride (HCl) and sodium chloride (NaCl) into a 1-L flask followed by addition of 1-L deionized water. The mixture was stirred until all solids are dissolved. Check pH value with a pH-meter and adjust the pH to 1.8 with HCl (1N) or NaOH (1N).

water adsorption [1]: 5.8 wt %
time of conversion to Form B in SGF [2]: ≤ 15 min
solubility at 15 min ([2]; Simulated Gastric Fluid (SGF), pH 1.8, simulated gastric fluid, thermodynamic from solid, 15 min, calculated using free base content): 5400 µg/mL
solubility at 30 min ([2]; Simulated Gastric Fluid (SGF), pH 1.8, simulated gastric fluid, thermodynamic from solid, 30 min, calculated using free base content): 5500 µg/mL
solubility at 60 min ([2]; Simulated Gastric Fluid (SGF), pH 1.8, simulated gastric fluid, thermodynamic from solid, 60 min, calculated using free base content): 5300 µg/mL
SMILES: CC(C)N(CC1O[C@@H](n2cnc3c(N)ncnc32)[C@H](O)[C@@H]1O)C1CC(CCc2nc3cc(C(C)(C)C)ccc3[nH]2)C1 (stereo partly drawn) [Form A, (2R,3R,4S,5R)-2-(6-amino-9H-purin-9-yl)-5-((((1r,3S)-3-(2-(5-(tert-butyl)-1H-benzo[d]imidazol-2-yl)ethyl)cyclobutyl)(isopropyl)amino)methyl)tetrahydrofuran-3,4-diol hydrate]
